Measured values from ChEMBL document CHEMBL4390642, “The in vivo antinociceptive and μ-opioid receptor activating effects of the combination of N-phenyl-2',4'-dimethyl-4,5'-bi-1,3-thiazol-2-amines and naloxone” (Eur J Med Chem, 2019).
Calls of active or inactive are those of the source. The calls are words filed in the database; no cut-off is given here.

Key:
Mu-type opioid receptor [1] = molecular target: T1, Mu-type opioid receptor (Homo sapiens, UniProt P35372); assay: Agonist activity at human mu opioid receptor expressed in CHOK1 cells coexpressing Galpha15 assessed as intracellular calcium AUC in presence of mu opioid receptor antagonist naloxone and incubated for 1 hr measured for 90 secs at 1.5 sec interval by FLIPR assay to morphine; type: functional, cell-based; parameters: concentration or dose not given beside the values
Mu-type opioid receptor [2] = molecular target: T1, Mu-type opioid receptor; assay: Agonist activity at human mu opioid receptor expressed in CHOK1 cells coexpressing Galpha15 assessed as increase in intracellular calcium flux in presence of mu opioid receptor antagonist naloxone and incubated for 1 hr measured for 90 secs at 1.5 sec interval by FLIPR assay; type: functional, cell-based
Mus musculus [3] = assay: Antinociceptive activity in C57BL/6 mouse model of thermal-induced nociception at 100 mg/kg, sc measured up to 30 to 180 mins by tail flick test; type: functional, organism-based
Mus musculus [4] = assay: (§1) Antinociceptive activity in C57BL/6 mouse model of thermal-induced nociception assessed as inhibition of tail-flick response by measuring AUC of tail flick test at 100 mg/kg, iv measured up to 30 to 180 mins in presence of 10 mg/kg, sc opioid receptor antagonist naloxone by tail flick test; type: functional, organism-based
Mus musculus [5] = assay: Antinociceptive activity in C57BL/6 mouse model of thermal-induced nociception assessed as inhibition of tail-flick response by measuring AUC of tail flick test at 25 mg/kg, iv measured up to 30 to 180 mins in presence of 10 mg/kg, sc opioid receptor antagonist naloxone by tail flick test; type: functional, organism-based
[6] = Toxicity in iv dosed C57BL/6 mouse assessed as safe dose causing no animal death measured up to 30 to 180 mins during tail-flick test; type: organism-based; conditions: in vivo
Mus musculus [7] = assay: as §1, with “assessed as naloxone ED50 for inhibition of” for “assessed as inhibition of”; type: functional
[8] = Toxicity in C57BL/6 mouse at 100 mg/kg, iv measured up to 30 to 180 mins during tail-flick test; type: organism-based; conditions: in vivo
Mus musculus [9] = assay: Antinociceptive activity in C57BL/6 mouse model of thermal-induced nociception assessed as inhibition of tail-flick response by measuring AUC of tail flick test at 50 mg/kg, iv measured up to 30 to 180 mins in presence of 10 mg/kg, sc opioid receptor antagonist naloxone by tail flick test; type: functional, organism-based
Mus musculus [10] = assay: Antinociceptive activity in C57BL/6 mouse model of thermal-induced nociception assessed as inhibition of tail-flick response at 100 mg/kg, iv measured up to 30 to 180 mins in presence of opioid receptor antagonist naloxone at 100 ng/kg, sc by tail flick test; type: functional, organism-based
Mus musculus [11] = assay: Antinociceptive activity in C57BL/6 mouse model of thermal-induced nociception at 100 mg/kg measured at 30 mins post injection by tail flick test; type: functional, organism-based
Mus musculus [12] = assay: Antinociceptive activity in C57BL/6 mouse model of thermal-induced nociception assessed as inhibition of tail-flick response at 100 mg/kg, iv measured at 30 mins in presence of opioid receptor antagonist naloxone at 100 ng/kg, sc by tail flick test; type: functional, organism-based
Mus musculus [13] = assay: Antinociceptive activity in C57BL/6 mouse model of thermal-induced nociception assessed as inhibition of tail-flick response by measuring AUC of tail flick test at 25 to 100 mg/kg, iv measured up to 30 to 180 mins in presence of 10 mg/kg, sc opioid receptor antagonist naloxone by tail flick test; type: functional, organism-based

T1 sequence (P35372 whole entry): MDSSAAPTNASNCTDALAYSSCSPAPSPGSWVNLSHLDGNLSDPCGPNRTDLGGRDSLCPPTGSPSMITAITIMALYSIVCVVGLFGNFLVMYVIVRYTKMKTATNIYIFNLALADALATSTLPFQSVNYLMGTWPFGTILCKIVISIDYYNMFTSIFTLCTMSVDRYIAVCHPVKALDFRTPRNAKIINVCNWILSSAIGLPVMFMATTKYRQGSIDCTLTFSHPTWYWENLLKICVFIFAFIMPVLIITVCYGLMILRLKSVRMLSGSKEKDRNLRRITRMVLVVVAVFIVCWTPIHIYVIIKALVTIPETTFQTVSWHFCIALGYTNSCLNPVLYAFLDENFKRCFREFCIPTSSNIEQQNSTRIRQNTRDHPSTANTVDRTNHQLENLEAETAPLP

Structure (SMILES)	Activity (Mu-type opioid receptor [1])	EC50 (Mu-type opioid receptor [2]) [µM]	other results
COc1ccc(Nc2nc(-c3sc(C)nc3C)cs2)c(OC)c1	45.2%	19	–
Cc1nc(C)c(-c2csc(Nc3ccc(Br)cc3C(F)(F)F)n2)s1	32.9%	13.8	–
Cc1nc(C)c(-c2csc(Nc3cccc(F)c3C)n2)s1	57.9%	10.1	–
CCc1ccccc1Nc1nc(-c2sc(N)nc2C)cs1	inactive	> 30	–
Cc1cc(C)c(Nc2nc(-c3oc(C)nc3C)cs2)c(C)c1	43.2%	3.9	–
COc1cccc(Nc2nc(-c3sc(C)nc3C)cs2)c1C	27.2%	3.3	–
CCc1ccccc1Nc1nc(C)cs1	inactive	> 30	–
Cc1nc(C)c(-c2csc(Nc3c(C(C)C)cccc3C(C)C)n2)s1	inactive	> 30	–
CCc1ccccc1Nc1nc(-c2sc(C)nc2C)c(C)s1	inactive	> 30	–
C=CCN1CC[C@]23c4c5ccc(O)c4O[C@H]2C(=O)CC[C@@]3(O)[C@H]1C5	–	–	Activity (Mus musculus [3]): inactive
CCc1ccccc1Nc1nc(-c2nccs2)cs1	inactive	> 30	–
Cc1nc(C)c(-c2csc(Nc3ccc(Br)cc3C)n2)s1	inactive	> 30	–
Cc1cc(C)c(Nc2nc(-c3sc(C)nc3C)cs2)c(C)c1	52%	6.1	–
CCc1ccccc1Nc1nc(-c2sc(-c3ccccc3)nc2C)cs1	inactive	> 30	–
CCc1cc(Br)ccc1Nc1nc(-c2sc(C)nc2C)cs1	5.9%	4.9	–
Cc1nc(C)c(-c2csc(Nc3c(C)cccc3F)n2)s1	32%	4.2	–
CCc1ccccc1Nc1nc(-c2oc(C)nc2C)cs1	76.2%	3.3	–
CCc1nc(C)c(-c2csc(Nc3ccccc3CC)n2)s1	32.5%	8.6	–
CCc1ccccc1Nc1ncc(-c2sc(C)nc2C)o1	34.4%	13.3	–
Cc1nc(C)c(-c2csc(Nc3ccccc3CC(F)(F)F)n2)s1	72.1%	8.5	–
CCc1cccc(C)c1Nc1nc(-c2sc(C)nc2C)cs1	38.2%	2.8	–
CCc1ccccc1Nc1nc(-c2sc(C)nc2C)cs1	–	–	AUC (Mus musculus [4]): 384 min.sec; AUC (Mus musculus [5]): 115 min.sec; Activity [6]: 100 mg/kg; ED50 (Mus musculus [7]): 17.5 mg/kg; Activity [8]: Non-Toxic; AUC (Mus musculus [9]): 160 min.sec; Activity (Mus musculus [10]): Active; Activity (Mus musculus [11]): inactive; Activity (Mus musculus [12]): inactive; Activity (Mus musculus [13]): Dose-dependent effect
COc1ccc(Nc2nc(-c3sc(C)nc3C)cs2)c(C)c1	32.6%	14	–
CCc1ccccc1Nc1nc(-c2sc(NC(C)=O)nc2C)cs1	inactive	> 30	–
Cc1nc(C)c(-c2csc(N)n2)s1	inactive	> 30	–
Cc1ccc(Nc2nc(-c3sc(C)nc3C)cs2)c(C)c1	57.2%	8.8	–
